# According to patent publication EP0565377B1, “Therapeutic agents for use in the treatment of Parkinson's Disease” (Kyowa Hakko Kogyo Co., Ltd., priority 1992, dated 1993):
# Test system: dd-strain male mice
# Test: Acute toxicity test (minimum lethal dose, oral)
# Type: in vivo
# Details: oral administration, mortality seven days after administration, three mice per group
# Experimental: Test compounds were orally administered to groups of dd-strain male mice weighing 20±1 g, each group consisting of three mice. Seven days after the administration, minimum lethal dose (MLD) of each compound was determined by observing the mortality.
row,Compound,MLD
1,"CCCn1c(=O)c2c(nc(/C=C\c3ccc(OC)c(OC)c3)n2C)n(CCC)c1=O [Compound 46, (Z)-8-(3,4-dimethoxystyryl)-7-methyl-1,3-dipropylxanthine]",> 300 mg/kg
2,"CCCn1c(=O)c2[nH]c(/C=C/c3ccccc3Cl)nc2n(CCC)c1=O [Compound 40, (E)-8-(2-chlorostyryl)-1,3-dipropylxanthine]",> 100 mg/kg
3,"CCCn1c(=O)c2c(nc(/C=C/c3cccc([N+](=O)[O-])c3)n2C)n(CCC)c1=O [Compound 35, (E)-7-methyl-8-(3-nitrostyryl)-1,3-dipropylxanthine]",> 100 mg/kg
4,"CCCn1c(=O)c2c(nc(/C=C/c3cccc(F)c3)n2C)n(CCC)c1=O [Compound 37, (E)-8-(3-fluorostyryl)-7-methyl-1,3-dipropylxanthine]",> 100 mg/kg
5,"CCCn1c(=O)c2c(nc(/C=C/c3ccc4c(c3)OCCO4)n2C)n(CCC)c1=O [Compound 17, (E)-8-[2-(1,4-benzodioxan-6-yl)vinyl]-7-methyl-1,3-dipropylxanthine]",> 300 mg/kg
6,"CCCn1c(=O)c2[nH]c(/C=C/c3ccccc3F)nc2n(CCC)c1=O [Compound 42, (E)-8-(2-fluorostyryl)-1,3-dipropylxanthine]",> 100 mg/kg
7,"CCCCOc1ccc(/C=C/c2nc3c(c(=O)n(CCC)c(=O)n3CCC)n2C)cc1 [Compound 52, (E)-8-(4-butoxystyryl)-7-methyl-1,3-dipropylxanthine]",> 100 mg/kg
8,"CCCn1c(=O)c2c(nc(/C=C/c3cc(Br)c(OC)c(OC)c3)n2C)n(CCC)c1=O [Compound 60, (E)-8-(3-bromo-4,5-dimethoxystyryl)-7-methyl-1,3-dipropylxanthine]",> 100 mg/kg
9,"CCCn1c(=O)c2c(nc(/C=C/c3ccccc3F)n2C)n(CCC)c1=O [Compound 43, (E)-8-(2-fluorostyryl)-7-methyl-1,3-dipropylxanthine]",> 100 mg/kg
10,"CCCn1c(=O)c2[nH]c(/C=C/c3ccc(OC)c(C)c3OC)nc2n(CCC)c1=O [Compound 14, (E)-8-(2,4-dimethoxy-3-methylstyryl)-1,3-dipropylxanthine]",> 100 mg/kg
11,"CCCn1c(=O)c2[nH]c(/C=C/c3cc(C)c(OC)cc3C)nc2n(CCC)c1=O [Compound 44, (E)-8-(4-methoxy-2,5-dimethylstyryl)-1,3-dipropylxanthine]",> 300 mg/kg
12,"CCCCOc1ccc(/C=C/c2nc3c([nH]2)c(=O)n(CCC)c(=O)n3CCC)cc1 [Compound 51, (E)-8-(4-butoxystyryl)-1,3-dipropylxanthine]",> 100 mg/kg
13,"CCCn1c(=O)c2[nH]c(/C=C/c3cccc(OC)c3OC)nc2n(CCC)c1=O [Compound 28, (E)-8-(2,3-dimethoxystyryl)-1,3-dipropylxanthine]",> 100 mg/kg
14,"CCCn1c(=O)c2c(nc(/C=C/c3cc(OC)c(OCc4ccccc4)c(OC)c3)n2C)n(CCC)c1=O [Compound 27, (E)-8-(4-benzyloxy-3,5-dimethoxystyryl)-7-methyl-1,3-dipropylxanthine]",> 100 mg/kg
15,"CCCn1c(=O)c2[nH]c(/C=C/c3ccc(OC)c(C)c3C)nc2n(CCC)c1=O [Compound 12, (E)-8-(4-methoxy-2,3-dimethylstyryl)-1,3-dipropylxanthine]",> 300 mg/kg
16,"CCCn1c(=O)c2nc(/C=C/c3cccc(Cl)c3)[nH]c2n(CCC)c1=O [Compound 38, (E)-8-(3-chlorostyryl)-1,3-dipropylxanthine]",> 100 mg/kg
17,"CCCOc1ccc(/C=C/c2nc3c([nH]2)c(=O)n(CCC)c(=O)n3CCC)cc1 [Compound 49, (E)-8-(4-propoxystyryl)-1,3-dipropylxanthine]",> 100 mg/kg
18,"CCCn1c(=O)c2[nH]c(/C=C/c3cc(OC)c(OCc4ccccc4)c(OC)c3)nc2n(CCC)c1=O [Compound 26, (E)-8-(4-benzyloxy-3,5-dimethoxystyryl)-1,3-dipropylxanthine]",> 100 mg/kg
19,"CCCn1c(=O)c2c(nc(/C=C/c3ccc(OC)c(OC)c3OC)n2C)n(CCC)c1=O [Compound 21, (E)-7-methyl-1,3-dipropyl-8-(2,3,4-trimethoxystyryl)xanthine]",> 300 mg/kg

row,Compound,MLD
1,"CCCn1c(=O)c2[nH]c(/C=C/c3ccc(OC)c4ccccc34)nc2n(CCC)c1=O [Compound 61, (E)-8-[2-(4-methoxynaphthyl)vinyl]-1,3-dipropylxanthine]",> 100 mg/kg
2,"CCCn1c(=O)c2[nH]c(/C=C/c3cc(OC)c(OC)cc3Br)nc2n(CCC)c1=O [Compound 57, (E)-8-(2-bromo-4,5-dimethoxystyryl)-1,3-dipropylxanthine]",> 300 mg/kg
3,"CCCn1c(=O)c2c(nc(/C=C/c3cccc(Cl)c3)n2C)n(CCC)c1=O [Compound 39, (E)-8-(3-chlorostyryl)-7-methyl-1,3-dipropylxanthine]",> 100 mg/kg
4,"CCCn1c(=O)c2[nH]c(/C=C/c3ccc(OC)c(Br)c3)nc2n(CCC)c1=O [Compound 55, (E)-8-(3-bromo-4-methoxystyryl)-1,3-dipropylxanthine]",> 100 mg/kg
5,"CCCn1c(=O)c2c(nc(/C=C/c3ccc(OC)c4ccccc34)n2C)n(CCC)c1=O [Compound 62, (E)-8-[2-(4-methoxynaphthyl)vinyl]-7-methyl-1,3-dipropylxanthine]",> 100 mg/kg
6,"CCCn1c(=O)c2c(nc(/C=C/c3ccc(OC)c(O)c3)n2C)n(CCC)c1=O [Compound 63, (E)-8-(3-hydroxy-4-methoxystyryl)-7-methyl-1,3-dipropylxanthine]",> 100 mg/kg
7,"CCCn1c(=O)c2[nH]c(/C=C/c3cccc([N+](=O)[O-])c3)nc2n(CCC)c1=O [Compound 34, (E)-8-(3-nitrostyryl)-1,3-dipropylxanthine]",> 100 mg/kg
8,"CCCn1c(=O)c2c(nc(/C=C/c3cc(OC)c(OC)cc3Br)n2C)n(CCC)c1=O [Compound 58, (E)-8-(2-bromo-4,5-dimethoxystyryl)-7-methyl-1,3-dipropylxanthine]",> 300 mg/kg
9,"CCCn1c(=O)c2c(nc(/C=C/c3ccccc3Cl)n2C)n(CCC)c1=O [Compound 41, (E)-8-(2-chlorostyryl)-7-methyl-1,3-dipropylxanthine]",> 100 mg/kg
10,"CCCn1c(=O)c2c(nc(/C=C/c3ccc(OCC)c(OCC)c3)n2C)n(CCC)c1=O [Compound 54, (E)-8-(3,4-diethoxystyryl)-7-methyl-1,3-dipropylxanthine]",> 100 mg/kg
11,"CCCn1c(=O)c2c(nc(/C=C/c3cc(OC)cc(OC)c3)n2C)n(CCC)c1=O [Compound 33, (E)-8-(3,5-dimethoxystyryl)-7-methyl-1,3-dipropylxanthine]",> 100 mg/kg
12,"CCCn1c(=O)c2c(nc(/C=C/c3ccc(OC)c(Br)c3)n2C)n(CCC)c1=O [Compound 56, (E)-8-(3-bromo-4-methoxystyryl)-7-methyl-1,3-dipropylxanthine]",> 100 mg/kg
13,"CCCn1c(=O)c2nc(/C=C/c3cccc(F)c3)[nH]c2n(CCC)c1=O [Compound 36, (E)-8-(3-fluorostyryl)-1,3-dipropylxanthine]",> 100 mg/kg
14,"CCCn1c(=O)c2nc(/C=C/c3cc(OC)cc(OC)c3)[nH]c2n(CCC)c1=O [Compound 32, (E)-8-(3,5-dimethoxystyryl)-1,3-dipropylxanthine]",> 100 mg/kg
15,"CCCn1c(=O)c2nc(/C=C/c3cc(OC)c(OC)cc3OC)[nH]c2n(CCC)c1=O [Compound 22, (E)-1,3-dipropyl-8-(2,4,5-trimethoxystyryl)-xanthine]",> 300 mg/kg
16,"CCCn1c(=O)c2[nH]c(/C=C/c3ccc(OCC)cc3)nc2n(CCC)c1=O [Compound 47, (E)-8-(4-ethoxystyryl)-1,3-dipropylxanthine]",> 100 mg/kg
17,"CCCn1c(=O)c2c(nc(/C=C/c3cc(C)c(OC)cc3C)n2C)n(CCC)c1=O [Compound 45, (E)-8-(4-methoxy-2,5-dimethylstyryl)-7-methyl-1,3-dipropylxanthine]",> 300 mg/kg
18,"CCCn1c(=O)c2c(nc(/C=C/c3cccc(OC)c3OC)n2C)n(CCC)c1=O [Compound 29, (E)-8-(2,3-dimethoxystyryl)-7-methyl-1,3-dipropylxanthine]",> 300 mg/kg
19,"CCCn1c(=O)c2[nH]c(/C=C/c3ccc(C)c(C)c3)nc2n(CCC)c1=O [Compound 30, (E)-8-(3,4-dimethylstyryl)-1,3-dipropylxanthine]",> 100 mg/kg
